“And” between values parts separate entries of the source, which are not always exact repeats. Identical values can stand only once. Like-named read-outs stand apart in the source and are kept apart here.
Test system: T. brucei lysate proteins
Format: binding, Trypanosoma brucei

For NCCOCCOCC(=O)Nc1nc2ncc(CNc3ccc(C(=O)NC(CCC(=O)O)C(=O)O)cc3)nc2c(=O)[nH]1 (stereo not shown) [compound 6], the “fold change vs vehicle control” value was 0.88 and 0.97 and 1.1 and 0.99 and 0.76 and 1, the fold change (protein CZB00000046.1 HA-UBIQUITIN, vehicle control = 1) was 0.9 and the fold change (protein CZT00018965.1 RETRO[…] (RHS) PROTEIN 1, vehicle control = 1) was 1.49. For the same compound, the fold change (protein RHS6A, vehicle control = 1) was 1, the “fold change vs vehicle control” value (protein TB09.160.3270 ATP-DEPENDENT DEAD BOX HELICASE, PUTATIVE, vehicle control = 1) was 1.28 and the “fold change vs vehicle control” value (protein TB09.160.4200 60S ACIDIC RIBOSOMAL PROTEIN, PUTATIVE, vehicle control = 1) was 0.88. The “fold change vs vehicle control” value (protein TB09.211.2630 60S RIBOSOMAL PROTEIN L23, PUTATIVE, vehicle control = 1) was 0.96, the fold change (protein TB09.211.4760 METACASPASE 5, PUTATIVE, vehicle control = 1) was 0.82 and the fold change (protein TB11.01.1690 HY[…], CONSERVED, vehicle control = 1) was 1.19. The “fold change vs vehicle control” value (protein TB11.01.2560 40S RIBOSOMAL PROTEIN SA, PUTATIVE, vehicle control = 1) was 0.94, the “fold change vs vehicle control” value (protein TB11.01.3180 GUANINE NUCLEOTIDE-BINDING PROTEIN BETA SUBUNIT-LIKE PROTEIN, vehicle control = 1) was 0.97 and the fold change (protein TB11.01.3560 VACUOLAR ATP SYNTHASE SUBUNIT B, PUTATIVE, vehicle control = 1) was 0.93. The “fold change vs vehicle control” value (protein TB11.01.4370 HY[…], CONSERVED, vehicle control = 1) was 0.96, the fold change (protein TB11.01.5350 PROFILIN, vehicle control = 1) was 0.97 and the “fold change vs vehicle control” value (protein TB11.01.5910 DYNEIN IN[…] IC70, PUTATIVE, vehicle control = 1) was 0.99. For the same compound, the fold change (protein TB11.01.8590 RAB-LIKE 5, SMALL G PROTEIN, vehicle control = 1) was 0.94, the fold change (protein TB11.01.8740 PROTEIN PHOSPHATASE 4, PUTATIVE, vehicle control = 1) was 0.8 and the “fold change vs vehicle control” value (protein TB11.02.0730 METACASPASE, vehicle control = 1) was 0.84. The “fold change vs vehicle control” value (protein TB11.02.1135 DYNEIN LIGHT CHAIN, PUTATIVE, vehicle control = 1) was 1.14, the “fold change vs vehicle control” value (protein TB11.02.2040 HY[…], CONSERVED (ALBA-Domain Protein), vehicle control = 1) was 1.34 and the “fold change vs vehicle control” value (protein TB11.02.2420 HY[…], CONSERVED, vehicle control = 1) was 0.9. The “fold change vs vehicle control” value (protein TB11.02.2510 GUANINE NUCLEOTIDE-BINDING BETA SUBUNIT-LIKE PROTEIN, vehicle control = 1) was 1, the “fold change vs vehicle control” value (protein TB11.02.2640 DYNEIN IN[…] IC78, PUTATIVE, vehicle control = 1) was 0.97 and the fold change (protein TB11.02.2960 MIT[…] PROTEIN, PUTATIVE, vehicle control = 1) was 0.88. For the same compound, the “fold change vs vehicle control” value (protein TB11.03.0250 C[…], vehicle control = 1) was 1.45, the fold change (protein TB11.46.0009 HY[…], CONSERVED, vehicle control = 1) was 0.99 and the “fold change vs vehicle control” value (protein TB427TMP.01.1680 POLYUBIQUITIN, PUTATIVE, vehicle control = 1) was 1.25. For the same compound, the fold change (protein TB427TMP.01.1830 HY[…], CONSERVED, vehicle control = 1) was 0.89, the “fold change vs vehicle control” value (protein TB427TMP.01.4280 HY[…], CONSERVED, vehicle control = 1) was 0.84 and the fold change (protein TB427TMP.01.4750 […] 1 GAMMA, PUTATIVE, vehicle control = 1) was 1. The “fold change vs vehicle control” value (protein TB427TMP.01.5000 HY[…], CONSERVED, vehicle control = 1) was 0.91, the “fold change vs vehicle control” value (protein TB427TMP.01.5680 HY[…], CONSERVED, vehicle control = 1) was 1.21 and the fold change (protein TB427TMP.01.5960 MIT[…] PROTEIN, PUTATIVE, vehicle control = 1) was 0.82. The “fold change vs vehicle control” value (protein TB427TMP.01.6890 SMALL GTPASE, PUTATIVE, vehicle control = 1) was 1.56, the fold change (protein TB427TMP.01.7490 HY[…], CONSERVED, vehicle control = 1) was 0.97 and the fold change (protein TB427TMP.01.8390 HY[…], CONSERVED, vehicle control = 1) was 0.88. For the same compound, the fold change (protein TB427TMP.02.0030 DYNEIN HEAVY CHAIN, PUTATIVE, vehicle control = 1) was 1, the fold change (protein TB427TMP.02.0760 DYNEIN HEAVY CHAIN, PUTATIVE, vehicle control = 1) was 0.82 and the fold change (protein TB427TMP.02.1070 AMINOPEPTIDASE, PUTATIVE, vehicle control = 1) was 1.1. For the same compound, the fold change (protein TB427TMP.02.1460 HY[…], CONSERVED, vehicle control = 1) was 0.98, the fold change (protein TB427TMP.02.1860 HY[…], CONSERVED, vehicle control = 1) was 0.97 and the “fold change vs vehicle control” value (protein TB427TMP.02.2070 LONG-CHAIN-FATTY-ACID-COA LIGASE, PUTATIVE, vehicle control = 1) was 0.99. For the same compound, the “fold change vs vehicle control” value (protein TB427TMP.02.2120 NUCLEOPORIN 48, vehicle control = 1) was 1.18, the “fold change vs vehicle control” value (protein TB427TMP.02.2890 HY[…], CONSERVED, vehicle control = 1) was 0.94 and the fold change (protein TB427TMP.02.4100 PRETRA[…], ALPHA SUBUNIT, PUTATIVE, vehicle control = 1) was 1.3. The fold change (protein TB427TMP.02.4550 HY[…], CONSERVED, vehicle control = 1) was 0.88, the fold change (protein TB427TMP.02.5660 HY[…], CONSERVED, vehicle control = 1) was 0.95 and the “fold change vs vehicle control” value (protein TB427TMP.02.5720 RIBONUCLEOSIDE-DIPHOSPHATE REDUCTASE LARGE CHAIN, vehicle control = 1) was 0.88. It also gave a fold change (protein TB427TMP.160.2370 HY[…], CONSERVED, vehicle control = 1) of 0.93, a fold change (protein TB427TMP.160.3630 CAMP-SPECIFIC PHOSPHODIESTERASE, vehicle control = 1) of 0.97 and a fold change (protein TB427TMP.160.4240 […] PROTEIN-LIKE PROTEIN, vehicle control = 1) of 1.2. The “fold change vs vehicle control” value (protein TB427TMP.160.4450 40S RIBOSOMAL PROTEIN S3, PUTATIVE, vehicle control = 1) was 1.12, the “fold change vs vehicle control” value (protein TB427TMP.160.4560 ARGININE KINASE, vehicle control = 1) was 1.65 and the “fold change vs vehicle control” value (protein TB427TMP.160.4630 HY[…], CONSERVED, vehicle control = 1) was 0.88. It also gave a fold change (protein TB427TMP.160.4770 PROTEIN KINASE, PUTATIVE, vehicle control = 1) of 0.84, a fold change (protein TB427TMP.160.4910 FLAVOPROTEIN MONOOXYGENASE, PUTATIVE, vehicle control = 1) of 0.97 and a fold change (protein TB427TMP.160.5670 HY[…], CONSERVED, vehicle control = 1) of 0.99. For the same compound, the fold change (protein TB427TMP.211.2460 HY[…], CONSERVED, vehicle control = 1) was 0.99, the “fold change vs vehicle control” value (protein TB427TMP.211.2570 T-COMPLEX PROTEIN 1, ETA SUBUNIT, PUTATIVE, vehicle control = 1) was 0.91 and the “fold change vs vehicle control” value (protein TB427TMP.211.3140 HY[…], CONSERVED, vehicle control = 1) was 1.47. For the same compound, the “fold change vs vehicle control” value (protein TB427TMP.211.3510 ATP-DEPENDENT DEAD/H RNA HELICASE, PUTATIVE, vehicle control = 1) was 0.88, the “fold change vs vehicle control” value (protein TB427TMP.211.4170 HY[…], CONSERVED, vehicle control = 1) was 0.88 and the fold change (protein TB427TMP.47.0011 HY[…], CONSERVED, vehicle control = 1) was 0.93. For the same compound, the “fold change vs vehicle control” value (protein TB427TMP.55.0006 INTR[…] PROTEIN IFT88, vehicle control = 1) was 0.95, the “fold change vs vehicle control” value (protein TB427TMP.57.0008 CALPAIN-LIKE PROTEIN, PUTATIVE, vehicle control = 1) was 0.97 and the fold change (protein TB427TMP.V1.0370 HY[…], CONSERVED, vehicle control = 1) was 0.88. The “fold change vs vehicle control” value (protein TB427.01.120 RETRO[…] SPOT (RHS) PROTEIN, PUTATIVE, vehicle control = 1) was 0.88, the fold change (protein TB427.01.2570 COATOMER BETA SUBUNIT, vehicle control = 1) was 0.88 and the fold change (protein TB427.01.420 RETRO[…] SPOT (RHS) PROTEIN, PUTATIVE, vehicle control = 1) was 0.97. The fold change (protein TB427.01.5030 LEUCINE-RICH REPEAT PROTEIN (LRRP), PUTATIVE, vehicle control = 1) was 0.93, the “fold change vs vehicle control” value (protein TB427.02.2970 MIT[…] PROTEIN, PUTATIVE, vehicle control = 1) was 1.21 and the “fold change vs vehicle control” value (protein TB427.02.6050 BETA PRIME COP PROTEIN, vehicle control = 1) was 1.36. The “fold change vs vehicle control” value (protein TB427.03.1210 PROTEIN TRANSPORT PROTEIN SEC24, vehicle control = 1) was 1.1, the “fold change vs vehicle control” value (protein TB427.03.3160 POLY(A) POLYMERASE, vehicle control = 1) was 0.47 and the “fold change vs vehicle control” value (protein TB427.03.4040 HY[…], CONSERVED (Ankyrinrepeat), vehicle control = 1) was 2.65. The “fold change vs vehicle control” value (protein TB427.03.4750 AMINOPEPTIDASE, PUTATIVE, vehicle control = 1) was 1.1, the fold change (protein TB427.03.4910 SIGNAL PEPTIDE PEPTIDASE, PUTATIVE, vehicle control = 1) was 1.22 and the fold change (protein TB427.04.1300 HY[…], CONSERVED, vehicle control = 1) was 1.2. For the same compound, the “fold change vs vehicle control” value (protein TB427.04.1510 PHOSPHOLIPID-TRA[…], PUTATIVE, vehicle control = 1) was 1, the fold change (protein TB427.04.2340 HY[…], CONSERVED, vehicle control = 1) was 0.92 and the fold change (protein TB427.04.310 HY[…], CONSERVED, vehicle control = 1) was 0.6. For the same compound, the fold change (protein TB427.04.420 PHOSPHATIDYLINOSITOL 3-KINASE (TOR2), vehicle control = 1) was 0.71, the fold change (protein TB427.04.450 COATOMER ALPHA SUBUNIT, PUTATIVE, vehicle control = 1) was 0.86 and the “fold change vs vehicle control” value (protein TB427.04.4870 AMINO ACID TRANSPORTER, PUTATIVE, vehicle control = 1) was 1.1. The fold change (protein TB427.04.5010 CALRETICULIN, PUTATIVE, vehicle control = 1) was 1.53, the “fold change vs vehicle control” value (protein TB427.05.1700 R[…] A 28 KDA SUBUNIT, PUTATIVE, vehicle control = 1) was 1.31 and the “fold change vs vehicle control” value (protein TB427.05.3260 HY[…], CONSERVED, vehicle control = 1) was 0.88. The “fold change vs vehicle control” value (protein TB427.05.4560 GUANINE DEAMINASE, PUTATIVE, vehicle control = 1) was 0.93, the “fold change vs vehicle control” value (protein TB427.06.1070 HY[…], CONSERVED, vehicle control = 1) was 0.94 and the “fold change vs vehicle control” value (protein TB427.06.1500 ALKYL-DIHYDR[…] SYNTHASE, vehicle control = 1) was 0.97. It also gave a fold change (protein TB427.06.1800 PROTEIN PHOSPHATASE 2C, PUTATIVE, vehicle control = 1) of 0.92.
